Read-outs that look alike come from different tables or passages of the source.
Assays:
[1] = tested on: HBV viral load, AD38 cells; assay: Activity of test compounds on viral production from AD38 cells (viral load by quantitative PCR of the core sequence in supernatant); type: cell-based, Hepatitis B virus; conditions: Hepatitis B virus, 144 h, 10 μM compound, 6 days at 37° C., vs DMSO control wells, read-out: AD38 Viral Load (CpAM/DMSO %) at 10 μM
Protocol: (§1) AD38 cells were then re-suspended with 10 mL of treatment medium and counted. Wells of a collagen coated 96-well NUNC microtiter plate were seeded at 50,000/well in 180 μL of treatment medium, and 20 μL of either 10% DMSO (Control) or a 10× solution of test compound in 10% DMSO in treatment media was added for a final compound concentration 1, 3, or 10 μM (1.0% final [DMSO]) and plates were incubated for 6 days at 37° C.
Subsequently viral load production was assayed by quantitative PCR of the core sequence. Briefly, 5 μL of clarified supernatant was added to a PCR reaction mixture that contained forward primers HBV-f 5′-CTGTGCCTTGGGTGGCTTT-3′, Reverse primers HBV-r 5′-[…]-3′ and Fluorescent TaqMan™ Probes HBV-probe 5′-FAM/AGCTCCAAA/ZEN/[…]/3IABkFQ-3′ in Quanta Biosciences PerfeCTa® qPCR Toughmix®, and was subsequently on an Applied Biosystems VIIA7 in a final volume of 20 μL. The PCR mixture was incubated at 45° C. for 5 minutes, then 95° C. for 10 min, followed by 40 cycles of 10 seconds at 95° C. and 20 seconds at 60° C. Viral load was quantitated against known standards by using ViiA™ 7 Software. Viral load in the supernatant from wells with treated cells were compared against viral load in supernatant from DMSO control wells (≥3 per plate).

AD38 cells = assay: AD38 viability normalized to DMSO control; type: cell-based; conditions: 10 μM compound, vs DMSO control
Protocol: as §1

| SMILES | activity at 10 µM ([1]; Table 6) [%] | AD38 Viability Normalized Result (CPAM/DMSO %) at 10 μM (AD38 cells; Table 6) [%] | activity at 10 µM ([1]; Table 9) [%] | AD38 Viability Normalized Result (CPAM/DMSO %) at 10 μM (AD38 cells; Table 9) [%] |
| --- | --- | --- | --- | --- |
| N#Cc1ccc(Nc2cc(C(F)(F)F)nc(N3CCN(S(=O)(=O)c4ccccc4)CC3)n2)cc1 [Compound 1325] | 1 | – | – | – |
| CN(C)c1cc(Oc2ccc(F)cc2)nc(N2CCN(S(=O)(=O)c3ccc(F)cc3)CC2)n1 [Compound 1297] | 59 | 103 | – | – |
| N#Cc1ccc(Nc2cc(-c3nccs3)nc(N3CCN(S(=O)(=O)c4ccc(F)cc4)CC3)n2)cc1 [Compound 1365] | – | – | 53 | 98 |
| COc1cccc(S(=O)(=O)N2CCN(c3cc(C)cc(Nc4ccc(C)cc4)n3)CC2)c1 [Compound 1173] | 9 | 105 | – | – |
| O=S(=O)(c1ccc(OC(F)(F)F)cc1)N1CCN(c2nc(Nc3nccs3)cc(C(F)(F)F)n2)CC1 [Compound 1418, N-(2-(4-((4-(trifluoromethoxy)phenyl)sulfonyl)piperazin-1-yl)-6-(trifluoromethyl)pyrimidin-4-yl) thiazol-2-amine] | – | – | 120 | 100 |
| COc1ccc(S(=O)(=O)N2CCN(c3nc(C)cc(Sc4ccc(C)cc4)n3)CC2)cc1 [Compound 1159] | 81 | 95 | – | – |
| Cc1ccc(S(=O)(=O)N2CCN(c3nc(Nc4ccc(C#N)cc4)cc(C(F)(F)F)n3)CC2)cc1 [Compound 1324] | 1 | – | – | – |
| O=C(O)COc1ccc(S(=O)(=O)N2CCN(c3nc(Nc4ccc(F)cc4)cc(C(F)(F)F)n3)CC2)cc1 [Compound 1399, 2-(4-((4-(4-((4-fluorophenyl)amino)-6-(trifluoromethyl)pyrimidin-2-yl)piperazin-1-yl)sulfonyl)phenoxy) acetic acid] | – | – | 43 | 93 |
| O=S(=O)(c1ccccc1)N1CCN(c2nc(Nc3ccc(F)cc3)cc(-n3cnnc3)n2)CC1 [Compound 1314] | 36 | 94 | – | – |
| COc1ccc(S(=O)(=O)N2CCN(c3nc(Nc4ccc(C)cc4)cc(N4CCCC4)n3)CC2)cc1 [Compound 1144] | 12 | 100 | – | – |
| COc1ccc(S(=O)(=O)N2CCN(c3nc(C)cc(Nc4ccc5ccccc5c4)n3)CC2)cc1 [Compound 1188] | 52 | 105 | – | – |
| O=S(=O)(c1ccc(C(F)(F)F)cc1)N1CCN(c2nc(Nc3ccc(F)cc3)cc(-n3cnnc3)n2)CC1 [Compound 1315] | 89 | 98 | – | – |
| COC(=O)c1ccc(S(=O)(=O)N2CCN(c3nc(C)cc(Nc4ccc(F)cc4)n3)CC2)cc1 [Compound 1382, methyl 4-((4-(4-((4-fluorophenyl)amino)-6-methylpyrimidin-2-yl)piperazin-1-yl)sulfonyl) benzoate] | – | – | 34 | 107 |
| COc1ccc(S(=O)(=O)N2CCN(c3nc(Nc4ccc(C)cc4)cc(NC(C)(C)C)n3)CC2)cc1 [Compound 1249] | 31 | 65 | – | – |
| Cc1cc(Nc2ccc(F)cc2)nc(N2CCN(S(=O)(=O)c3ccc(O[C@@H](C)C(=O)O)cc3)CC2)n1 [Compound 1396, (S)-2-(4-((4-(4-((4-fluorophenyl)amino)-6-methylpyrimidin-2-yl)piperazin-1-yl)sulfonyl)phenoxy) propanoic acid] | – | – | 70 | 100 |
| N#Cc1ccc(Nc2cc(-c3nccs3)nc(N3CCN(S(=O)(=O)c4ccccc4)CC3)n2)cc1 [Compound 1355] | – | – | 5 | 103 |
| COc1cccc(S(=O)(=O)N2CCN(c3cc(C)nc(Nc4ccc(C)cc4)n3)CC2)c1 [Compound 1151] | 1 | 73 | – | – |
| O=S(=O)(c1ccc(F)cc1)N1CCN(c2nc(Nc3ccc(F)cc3)cc(-c3nccs3)n2)CC1 [Compound 1362] | – | – | 54 | 88 |
| COC(=O)c1ccc(S(=O)(=O)N2CCN(c3nc(Nc4ccc(F)cc4)cc(C(F)(F)F)n3)CC2)cc1 [Compound 1386] | – | – | 23 | 118 |
| COCCOc1ccc(S(=O)(=O)N2CCN(c3nc(Nc4ccc(F)cc4)cc(C(F)(F)F)n3)CC2)cc1 [Compound 1407] | – | – | 12 | 91 |
| Cc1cc(Nc2ccc(C#N)cc2)nc(N2CCN(S(=O)(=O)c3ccc(O)cc3)CC2)n1 [Compound 1328] | 9 | – | – | – |

| SMILES | activity at 10 µM ([1]; Table 6) [%] | AD38 Viability Normalized Result (CPAM/DMSO %) at 10 μM (AD38 cells; Table 6) [%] | activity at 10 µM ([1]; Table 9) [%] | AD38 Viability Normalized Result (CPAM/DMSO %) at 10 μM (AD38 cells; Table 9) [%] |
| --- | --- | --- | --- | --- |
| Cc1ccc(Nc2cc(C)nc(N3CCN(S(=O)(=O)c4c[nH]cn4)CC3)n2)cc1 [Compound 1134] | 32 | 123 | – | – |
| COc1ccc(S(=O)(=O)N2CCN(c3nc(Nc4ccc(C)cc4)cc(-n4cncn4)n3)CC2)cc1 [Compound 1230] | 0 | 95 | – | – |
| Cc1cc(Nc2ccc(F)cc2)nc(N2CCN(S(=O)(=O)c3ccc(C(=O)O)cc3)CC2)n1 [Compound 1381, 4-((4-(4-((4-fluorophenyl)amino)-6-methylpyrimidin-2-yl)piperazin-1-yl)sulfonyl) benzoic acid] | – | – | 46 | 107 |
| O=S(=O)(c1ccc(OC(F)(F)F)cc1)N1CCN(c2nc(Nc3ccc(F)cc3)cc(C(F)(F)F)n2)CC1 [Compound 1340] | – | – | 1 | 88 |
| O=C(O)c1ccc(S(=O)(=O)N2CCN(c3nc(Nc4ccc(F)cc4)cc(C(F)(F)F)n3)CC2)cc1 [Compound 1388, 4-((4-(4-((4-fluorophenyl)amino)-6-(trifluoromethyl)pyrimidin-2-yl)piperazin-1-yl)sulfonyl) benzoic acid] | – | – | 15 | 106 |
| COCCOCCOc1ccc(S(=O)(=O)N2CCN(c3nc(Nc4ccc(F)cc4)cc(C(F)(F)F)n3)CC2)cc1 [Compound 1402] | – | – | 12 | 97 |
| COc1ccc(S(=O)(=O)N2CCN(c3nc(C)cc(Oc4ccc(C)cc4)n3)CC2)cc1 [Compound 1152] | 20 | 107 | – | – |
| COc1ccc(S(=O)(=O)N2CCN(c3nc(Nc4ccc(C)cc4)cc(OC)n3)CC2)cc1 [Compound 1157] | 35 | 96 | – | – |
| Cc1ccc(Nc2cc(C)nc(N3CCN(S(=O)(=O)c4ccc5[nH]c(=O)[nH]c5c4)CC3)n2)cc1 [Compound 1167] | 36 | 108 | – | – |
| Cc1ccc(S(=O)(=O)N2CCN(c3nc(Nc4ccc(C#N)cc4)cc(-c4cncs4)n3)CC2)cc1 [Compound 1379] | – | – | 6 | 110 |
| O=S(=O)(c1ccc(F)cc1)N1CCN(c2nc(Nc3ccc(F)cc3)cc(C(F)(F)F)n2)CC1 [Compound 1345] | – | – | 14 | 77 |
| CN(C)c1cc(Oc2ccc(F)cc2)nc(N2CCN(S(=O)(=O)c3ccc(C(F)(F)F)cc3)CC2)n1 [Compound 1298] | 100 | 97 | – | – |
| CC(C)c1cc(Oc2ccc(F)cc2)nc(N2CCN(S(=O)(=O)c3cccc(C(F)(F)F)c3)CC2)n1 [Compound 1287] | 77 | 98 | – | – |
| Cc1ccc(S(=O)(=O)N2CCN(c3nc(Nc4ccc(F)cc4)cc(-n4cnnc4)n3)CC2)cc1 [Compound 1316] | 25 | – | – | – |
| N#Cc1ccc(Nc2cc(C(F)(F)F)nc(N3CCN(S(=O)(=O)c4ccc(F)cc4)CC3)n2)cc1 [Compound 1326] | 2 | – | – | – |
| N#Cc1ccc(Nc2cc(C(F)(F)F)nc(N3CCN(S(=O)(=O)c4ccc(C(F)(F)F)cc4)CC3)n2)cc1 [Compound 1320] | 18 | – | – | – |
| Cc1cc(Nc2ccc(C#N)cc2)nc(N2CCN(S(=O)(=O)c3ccccc3)CC2)n1 [Compound 1327] | 1 | – | – | – |
| Cc1cc(Nc2ccc(C#N)cc2)nc(N2CCN(S(=O)(=O)c3ccc(F)cc3)CC2)n1 [Compound 1319] | 5 | – | – | – |
| COc1ccc(S(=O)(=O)N2CCN(c3nc(Nc4ccc(C#N)cc4)cc(C(F)(F)F)n3)CC2)cc1 [Compound 1329] | 1 | – | – | – |
| Cc1ccc(S(=O)(=O)N2CCN(c3nc(C)cc(Nc4ccc(C#N)cc4)n3)CC2)cc1 [Compound 1321] | 1 | – | – | – |
| Cc1cc(Nc2ccc(C#N)cc2)nc(N2CCN(S(=O)(=O)c3ccc(C(F)(F)F)cc3)CC2)n1 [Compound 1322] | 35 | – | – | – |
